Measured values reported in publication PMC5207512, “Inhibition of Helicobacter pylori and Its Associated Urease by Palmatine: Investigation on the Potential Mechanism” (PLoS ONE, 2017).
Where “and” joins values, the source holds several entries; their conditions need not be identical. Equal values may be shown once. Read-outs that look alike come from different tables or passages of the source.

Legend:
[1] = test system: four H. pylori strains (ATCC 43504, NCTC 26695, SS1 and ICDC 111001); experiment: MIC by agar dilution method, range over the four strains; format: cell-based; settings: Helicobacter pylori, read-out: MIC values against the four H. pylori strains
Protocol: (§1) A total of four H. pylori strains were studied, including three reference strains ATCC 43504, NCTC 26695 and SS1 gifted from Professor Richard Ferrero, Monash University, Australia, and one clinical isolate ICDC 111001 obtained from Professor Zhang Jianzhong, Chinese Center of Disease Control and Prevention. […] The MICs of Pal against the four H. pylori strains were evaluated by using agar dilution method. […] H. pylori strains were harvested and resuspended in PBS (1.0–2.0 McFarland were defined based on the strain properties). […] After 72 h, the MIC values were determined as the lowest concentration at which there was no strain growth judged by visual examination. Metronidazole was used as the positive control. The experiments were evaluated under two different pH (7.4 and 5.3) conditions and repeated twice.

H. pylori ATCC 43504 = experiment: MIC by agar dilution method; format: cell-based; settings: Helicobacter pylori
Protocol: as §1

H. pylori SS1 = experiment: MIC by agar dilution method; format: cell-based; settings: Helicobacter pylori
Protocol: as §1

H. pylori NCTC 26695 = experiment: MIC by agar dilution method; format: cell-based; settings: Helicobacter pylori
Protocol: as §1

[2] = test system: H. pylori ICDC 111001 (clinical isolate); experiment: MIC by agar dilution method; format: cell-based; settings: Helicobacter pylori
Protocol: as §1

[3] = set-up: method as in PMID 23159469; settings: among berberine, coptisine, palmatine and epiberberine; in vitro and in vivo assays; cited from earlier work
H. pylori urease (HPU) [4] = biological target: T1, H. pylori urease (HPU) (Helicobacter pylori, UniProt P69996); experiment: biochemical; format: biochemical; settings: for activity at 500 µM: read-out: Urease activity, Fig 6A HPU, Pal 0.5 mM, DTT 1.25 mM
T1 construct: HPU was prepared as previously described; made in house
T1 sequence (P14916 whole entry): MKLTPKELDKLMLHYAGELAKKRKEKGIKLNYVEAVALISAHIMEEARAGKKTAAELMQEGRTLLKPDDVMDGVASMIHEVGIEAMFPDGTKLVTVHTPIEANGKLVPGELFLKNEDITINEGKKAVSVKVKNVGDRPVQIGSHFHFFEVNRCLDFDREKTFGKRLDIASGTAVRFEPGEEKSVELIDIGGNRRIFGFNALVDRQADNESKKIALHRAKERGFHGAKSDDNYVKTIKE
T1 sequence (P69996 whole entry): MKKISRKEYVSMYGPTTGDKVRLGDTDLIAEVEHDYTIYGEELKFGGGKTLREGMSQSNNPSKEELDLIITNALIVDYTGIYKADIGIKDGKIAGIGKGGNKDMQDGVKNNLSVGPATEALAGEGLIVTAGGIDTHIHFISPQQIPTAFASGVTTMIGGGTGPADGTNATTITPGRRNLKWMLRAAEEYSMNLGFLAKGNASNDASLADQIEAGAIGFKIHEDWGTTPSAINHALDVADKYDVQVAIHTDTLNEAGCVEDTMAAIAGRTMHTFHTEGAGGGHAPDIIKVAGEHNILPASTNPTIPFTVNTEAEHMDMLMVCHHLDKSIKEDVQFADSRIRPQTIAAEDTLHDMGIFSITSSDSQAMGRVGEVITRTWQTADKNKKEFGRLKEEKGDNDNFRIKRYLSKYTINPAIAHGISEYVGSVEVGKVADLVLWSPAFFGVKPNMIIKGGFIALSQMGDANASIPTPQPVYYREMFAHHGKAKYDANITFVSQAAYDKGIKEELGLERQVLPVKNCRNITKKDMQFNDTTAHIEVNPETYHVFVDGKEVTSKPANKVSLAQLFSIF
Protocol: (§2) The reactivation of Pal-inactivated urease was investigated by DTT application. The preincubation mixture consisted of 0.25 mg/mL HPU or JBU and 0.5 mM Pal in 20 mM HEPES buffer (pH 7.5). Then the mixture was further incubated with 1.25 mM DTT after 20 min. The enzymatic activity of urease was determined before and after the addition of DTT. After a while, aliquots were withdrawn and the urease residual activity was determined. The experiments were repeated three times.

jack bean urease (JBU) [5] = biological target: T2, jack bean urease (JBU) (Canavalia ensiformis, UniProt P07374); experiment: biochemical; format: biochemical; settings: for activity at 500 µM: read-out: Urease activity, Fig 6B JBU, Pal 0.5 mM, DTT 1.25 mM
T2 construct: Urease from jack bean (Canavalia ensiformis, JBU); purchased Sigma-Aldrich (St Louis, MO, USA) type III (catalogue number not given)
T2 sequence (P07374 whole entry, looked up): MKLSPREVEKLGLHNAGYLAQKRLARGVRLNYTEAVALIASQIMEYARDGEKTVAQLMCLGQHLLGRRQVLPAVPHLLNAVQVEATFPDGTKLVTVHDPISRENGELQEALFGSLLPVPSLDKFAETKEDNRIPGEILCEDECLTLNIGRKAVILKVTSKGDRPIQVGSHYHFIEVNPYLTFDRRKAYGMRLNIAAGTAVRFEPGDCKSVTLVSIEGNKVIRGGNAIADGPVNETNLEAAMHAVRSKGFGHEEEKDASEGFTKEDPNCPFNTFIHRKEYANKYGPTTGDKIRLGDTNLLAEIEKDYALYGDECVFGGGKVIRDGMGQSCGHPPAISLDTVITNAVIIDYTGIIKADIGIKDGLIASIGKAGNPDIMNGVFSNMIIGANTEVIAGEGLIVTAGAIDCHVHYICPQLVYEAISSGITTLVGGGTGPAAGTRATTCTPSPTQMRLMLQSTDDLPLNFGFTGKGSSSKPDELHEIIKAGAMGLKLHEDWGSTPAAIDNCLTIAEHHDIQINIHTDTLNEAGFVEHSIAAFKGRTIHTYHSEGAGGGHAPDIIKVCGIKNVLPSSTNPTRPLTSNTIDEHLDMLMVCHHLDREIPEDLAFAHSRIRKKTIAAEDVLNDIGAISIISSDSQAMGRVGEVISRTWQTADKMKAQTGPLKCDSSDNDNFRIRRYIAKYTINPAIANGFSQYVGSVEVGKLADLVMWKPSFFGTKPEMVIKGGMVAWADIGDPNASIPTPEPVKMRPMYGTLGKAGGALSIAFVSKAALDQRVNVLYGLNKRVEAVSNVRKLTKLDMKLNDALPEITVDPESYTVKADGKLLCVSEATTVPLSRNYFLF
Protocol: as §2

H. pylori urease (HPU) [6] = biological target: T1, H. pylori urease (HPU); experiment: biochemical; format: biochemical
Protocol: (§3) For the protection with inorganic compounds (BA and NaF), 0.25 mg/mL urease (HPU or JBU) was preincubated with 5 mM BA or 5 mM NaF for 20 min. Following preincubation, each sample of the protected urease was incubated with 0.5 mM Pal for 20 min. The samples containing a proper volume of respective buffer instead of Pal served as comparison with the abovementioned systems. The experiments were triply performed.

jack bean urease (JBU) [7] = biological target: T2, jack bean urease (JBU); experiment: biochemical; format: biochemical
Protocol: as §3

H. pylori urease (HPU) [8] = biological target: T1, H. pylori urease (HPU); experiment: biochemical; format: biochemical; settings: read-out: Residual urease activity (percent of control), Fig 5A HPU, thiols 1.25 mM, Pal 0.5 mM, 20+20 min
Protocol: (§4) The reaction mixture consisted of 0.25 mg/mL HPU or JBU, 0.5 mM Pal (for both HPU and JBU), and 1.25 mM thiols (DTT, GSH, or L-cys) in 20 mM HEPES buffer (pH 7.5). The components of the incubation mixture were mixed according to three procedures: (1) Urease was added to the mixture after a 20-min co-incubation of Pal with thiol. (2) Pal was added to the mixture after a 20-min co-incubation of urease with thiol. (3) Thiols were added to the mixture after a 20-min co-incubation of urease with Pal. The incubation mixture containing all components was incubated for further 20 min and the activity of urease was determined. The experiments were triply performed.

jack bean urease (JBU) [9] = biological target: T2, jack bean urease (JBU); experiment: biochemical; format: biochemical; settings: read-out: Residual urease activity (percent of control), Fig 5B JBU, thiols 1.25 mM, Pal 0.5 mM, 20+20 min
Protocol: as §4

Question: For `COc1cc2c(cc1OC)-c1cc3ccc(OC)c(OC)c3c[n+]1CC2` [Pal, Palmatine], which MIC ([1]; acidic conditions (pH 5.3)) is on record?
Answer: 75 to 100 µg/mL

Question: And the MIC ([1]; neutral conditions (pH 7.4))?
Answer: 100 to 200 µg/mL

Question: And the MIC (H. pylori ATCC 43504; ATCC43504, pH 5.3, 72 h)?
Answer: 75 µg/mL

Question: What about the MIC (H. pylori ATCC 43504; ATCC43504, pH 7.4, 72 h) of the same molecule?
Answer: 100 µg/mL

Question: And the MIC (H. pylori SS1; pH 5.3, 72 h)?
Answer: 75 µg/mL

Question: What about the MIC (H. pylori SS1; pH 7.4, 72 h) of the same molecule?
Answer: 100 µg/mL

Question: And the MIC (H. pylori NCTC 26695; NCTC26695, pH 5.3, 72 h)?
Answer: 100 µg/mL

Question: What about the MIC (H. pylori NCTC 26695; NCTC26695, pH 7.4, 72 h) of the same molecule?
Answer: 200 µg/mL

Question: And the MIC ([2]; pH 5.3, 72 h)?
Answer: 75 µg/mL

Question: What about the MIC ([2]; pH 7.4, 72 h) of the same molecule?
Answer: 100 µg/mL

Question: What about the toxicity [3] of the same molecule?
Answer: minimal

Question: And the activity at 500 µM (H. pylori urease (HPU) [4]; 5 min, incubation time 5 min)?
Answer: 54%

Question: And the activity at 500 µM (H. pylori urease (HPU) [4]; 10 min, incubation time 10 min)?
Answer: 49.3%

Question: What about the activity at 500 µM (H. pylori urease (HPU) [4]; 0.25 h, incubation time 15 min) of the same molecule?
Answer: 49.3%

Question: And the activity at 500 µM (H. pylori urease (HPU) [4]; 20 min, incubation time 20 min)?
Answer: 31.8%

Question: What about the reversibility of inhibition (H. pylori urease (HPU) [4]; HPU, DTT reactivation assay) of the same molecule?
Answer: reversible

Question: And the activity at 500 µM (jack bean urease (JBU) [5]; 5 min, incubation time 5 min)?
Answer: 32.2%

Question: What about the activity at 500 µM (jack bean urease (JBU) [5]; 10 min, incubation time 10 min) of the same molecule?
Answer: 20.5%

Question: What about the activity at 500 µM (jack bean urease (JBU) [5]; 0.25 h, incubation time 15 min) of the same molecule?
Answer: 21.6%

Question: And the activity at 500 µM (jack bean urease (JBU) [5]; 20 min, incubation time 20 min)?
Answer: 30.9%

Question: What about the reversibility of inhibition (jack bean urease (JBU) [5]; JBU, DTT reactivation assay) of the same molecule?
Answer: reversible

Question: And the “Residual urease activity (percent of control)” value (H. pylori urease (HPU) [6]; Fig 4C HPU, BA or NaF 5 mM preincubated 20 min, Pal 0.5 mM 20 min)?
Answer: 23.7773% and 26.341%

Question: What about the “activity of enzyme inactivated by Pal in the presence of BA” value (H. pylori urease (HPU) [6]; HPU, 5 mM BA + 0.5 mM Pal, mean) of the same molecule?
Answer: 22.42%

Question: What about the “activity of enzyme inactivated by Pal in the presence of NaF” value (H. pylori urease (HPU) [6]; HPU, 5 mM NaF + 0.5 mM Pal, mean) of the same molecule?
Answer: 20.35%

Question: And the remaining activity at 500 µM (H. pylori urease (HPU) [6]; read-out: Residual urease activity (percent of control), Fig 4C HPU, BA or NaF 5 mM preincubated 20 min, Pal 0.5 mM 20 min)?
Answer: 23.1%

Question: And the “Residual urease activity (percent of control)” value (jack bean urease (JBU) [7]; Fig 4D JBU, BA or NaF 5 mM preincubated 20 min, Pal 0.5 mM 20 min)?
Answer: 36.6919% and 36.1251%

Question: What about the “activity of enzyme inactivated by Pal in the presence of BA” value (jack bean urease (JBU) [7]; JBU, 5 mM BA + 0.5 mM Pal, mean) of the same molecule?
Answer: 33.08%

Question: What about the “activity of enzyme inactivated by Pal in the presence of NaF” value (jack bean urease (JBU) [7]; JBU, 5 mM NaF + 0.5 mM Pal, mean) of the same molecule?
Answer: 19.91%

Question: And the remaining activity at 500 µM (jack bean urease (JBU) [7]; read-out: Residual urease activity (percent of control), Fig 4D JBU, BA or NaF 5 mM preincubated 20 min, Pal 0.5 mM 20 min)?
Answer: 35.2%

Question: And the remaining activity at 500 µM (H. pylori urease (HPU) [8]; order (Protector+Pal)+urease)?
Answer: 19.8%

Question: What about the remaining activity at 500 µM (H. pylori urease (HPU) [8]; order (urease+Pal)+Protector) of the same molecule?
Answer: 20%

Question: What about the remaining activity at 500 µM (H. pylori urease (HPU) [8]; order (urease+Protector)+Pal) of the same molecule?
Answer: 16.7%

Question: And the remaining activity at 500 µM (jack bean urease (JBU) [9]; order (Protector+Pal)+urease)?
Answer: 43.3%

Question: And the remaining activity at 500 µM (jack bean urease (JBU) [9]; order (urease+Pal)+Protector)?
Answer: 38%

Question: And the remaining activity at 500 µM (jack bean urease (JBU) [9]; order (urease+Protector)+Pal)?
Answer: 35.4%
